Experimental data: US20210030673A1, “Method and a Compound for Preventing Mammalian Cancer Cell Proliferation and for Treating Cancer” (Oy Granula Ab Ltd., priority 2019, published 2021)
pIC50: −log10 of the molar value. Read-outs that look alike come from different tables or passages of the source.

Experiments:
[1] = system: metastatic prostate cancer (PC-3) cells; test: Live-cell imaging of PC-3 proliferation, BA or BOA; type: cell-based, human; conditions: 48-hour treatment
Protocol: (§1) One day prior to the treatment, the cells were counted and plated on 24-well plates (Falcon) and incubated overnight at +37° C. (5% CO2). The following day, the cells were treated betulinic acid (BA) or betulonic acid (BOA) in concentrations of 0, 10, 50, 70, 100, and 150 μM. 1% DMSO was used to control for the effects of the solvent. All samples were made in triplicates. The cells were imaged for 48 h with 2 h intervals (9 images per well) using IncuCyte S3 Live-Cell Analysis System (Essen BioScience).

[2] = Cytotoxicity assay of BA and BOA (Cell Counting Kit-8), PC-3; conditions: human, PC-3 metastatic prostate cancer cells
Protocol: (§2) Cells were seeded with 5000 cells/well on a 96-well plate (Falcon) in RPMI-1640 medium (PC-3 cells) or DMEM medium (WM-266-4 cells) supplemented with 10% fetal bovine serum, 2 mM L-glutamine, 100 U/ml penicillin, and 100 μg/ml streptomycin. The cells were incubating overnight in +37° C., 5% CO2 for the cells to adhere to the plate. The following day, cells were treated with BA or BOA (prepared from stock solutions using DMSO as solvent) in concentrations of 0-200 μM in complete medium in replicate samples and incubated for 48 h. The old medium was thereafter discarded and substituted with 100 μL 10% Cell Counting Kit-8 reagent (Dojindo Molecular Technologies) diluted in serum-free RPMI-1640 medium. The samples were incubated for an additional 1 h prior to analyzing cell viability by measuring the absorbance at 450 nm using a microplate reader (Hidex Sense) according to manufacturer's protocol. Non-treated cells were used as a negative control. 1% DMSO was used to control for effect of solvent. All samples contained 1% or less DMSO. The experiment was repeated at least three independent times for accurate cytotoxicity analysis. The IC50-value was calculated using GraphPad Prism 6 software.

[3] = system: metastatic prostate cancer (PC-3) cells; test: as above; conditions: read-out: IC50-value, cell viability, PC-3
Protocol: as §2

[4] = system: normal human dermal fibroblast (HDF) cells
Text: Results are mean values from three independent experiments (±SEM).

[5] = Cytotoxicity assay of BA and BOA (Cell Counting Kit-8), WM-266-4; conditions: human, WM-266-4 metastatic melanoma cells
Protocol: as §2

[6] = system: metastatic melanoma (WM-266-4) cells; test: as above; conditions: read-out: IC50-value, cell viability, WM-266-4
Protocol: as §2

[7] = system: metastatic melanoma (WM-266-4) cells; test: Live-cell imaging of WM-266-4 proliferation, BOA; type: cell-based, human; conditions: 48-hour treatment
Protocol: as §1

[8] = system: metastatic melanoma (WM-266-4) cells; conditions: 100 µM
Protocol: as §2

[9] = system: metastatic prostate cancer (PC-3) cells; conditions: 100 µM
Protocol: as §2

[10] = 48 h treatment, complete medium

Row | Compound | concentration giving maximum decrease of PC-3 proliferation [1] | viability at 48 h, 100 µM [2] | pIC50 ([3]; Homo sapiens, PC-3, 48 h) | effect on HDF cell proliferation [4] | viability at 48 h, 100 µM [5] | pIC50 ([6]; Homo sapiens, WM 266-4, 48 h) | concentration giving maximal decrease in WM-266-4 proliferation [7] | viability of WM-266-4 cells [8] | pIC50 [3, 10] | pIC50 [6, 10] | viability of PC-3 cells [9]
1 | C=C(C)[C@@H]1CC[C@]2(C(=O)O)CC[C@]3(C)[C@H](CC[C@@H]4[C@@]5(C)CC[C@H](O)C(C)(C)[C@@H]5CC[C@]43C)[C@@H]12 [BA, betulinic acid] | 50 µM | ~0% | 4.17 | neither BA or BOA had any significant effects on HDF cells | ~0% | 4.19 | – | – | – | – | –
2 | C=C(C)[C@@H]1CC[C@]2(C(=O)O)CC[C@]3(C)[C@H](CC[C@@H]4[C@@]5(C)CCC(=O)C(C)(C)[C@@H]5CC[C@]43C)[C@@H]12 [BOA, betulonic acid] | 50 µM | – | – | neither BA or BOA had any significant effects on HDF cells | – | – | 50 µM | below 20% | 4.11 | 4.40 | below 20%
